How the values were obtained:
paddy field weeds = assay: Test for herbicidal effect against paddy field weeds; format: in vivo; settings: 0.25 kg/ha active component, applied to water surface 5 days after rice transplantation, examined after 3 weeks
Experimental: (§1) Preparation of formulation of the active compound • Carrier: Acetone 5 parts by weight • Emulsifier: Benzyloxy polyglycol ether 1 part by weight
(§2) A formulation of an active substance is obtained as an emulsifiable concentrate by mixing 1 part by weight of the active compound with the above-mentioned amount of the carrier and emulsifier. A prescribed amount of the formulation is diluted with water.
(§3) In a green house 3 seedlings of paddy rice (variety: Nihonbare) of 2.5 leaf stage (15 cm tall) were transplanted in a 500 cm^2 pot filled with paddy field soil. Then seeds or tubers of Echinochloa crusgalli, Cyperus difformis L., Scirpus juncoides Roxburgh, Monochoria vaginalis Presl, broad-leaved weeds (Lindernia Procumbens Philcox, Rotala indica Koehne, Elatine triandra Schk, Ammannia multiflora Roxb., Dopatrium junceum Hammilt etc.), Cyperus serotinus Rottboel and Sagittaria pygmaea Miq were inoculated and water was poured to a depth of about 2-3 cm. 5 days after the rice transplantation a prescribed, diluted solution of each formulation of active compound prepared according to the aforementioned preparation method was applied to the surface of water. After the treatment the water depth of 3 cm was maintained and the herbicidal effect was examined after 3 weeks from the treatment. The herbicidal effect was rated 100% in the case of complete death and as 0% in the case of no herbicidal effect.

transplanted paddy rice = assay: Paddy field test: safety to transplanted paddy rice; format: in vivo, paddy rice (variety: Nihonbare); settings: 0.25 kg/ha active component, applied to water surface 5 days after rice transplantation, examined after 3 weeks
Experimental: as §1, §2, §3

Amaranthus retroflexus = assay: Test of post-emergence foliage treatment against field weeds; format: in vivo; settings: post-emergence foliage treatment at 2-leaf stage, 2.0 kg/ha effective component, examined 3 weeks after treatment
Experimental: as §1, §2
(§4) In a green house, seeds of Echinochloa crusgalli, Setaria viridis, Amaranthus retro-flexus and Polygonum were sown in a 120 cm^2 pot filled with field soil and covered with soil. 10 days after the sowing and soil covering (weeds were 2-leaf stage in average) a diluted solution of the prescribed chemical amount prepared in the same manner as in the above-mentioned Test Example 1 was spread uniformly on the foliage of the test plants in each test pot. The herbicidal effect was examined 3 weeks after the treatment.

Echinochloa crusgalli = assay: as above; format: in vivo; settings: post-emergence foliage treatment at 2-leaf stage, 2.0 kg/ha effective component, examined 3 weeks after treatment
Experimental: as §1, §2, §4

Polygonum = assay: as above; format: in vivo; settings: post-emergence foliage treatment at 2-leaf stage, 2.0 kg/ha effective component, examined 3 weeks after treatment
Experimental: as §1, §2, §4

Setaria viridis = assay: as above; format: in vivo; settings: post-emergence foliage treatment at 2-leaf stage, 2.0 kg/ha effective component, examined 3 weeks after treatment
Experimental: as §1, §2, §4

Row | Structure (SMILES) | herbicidal effect against paddy field weeds (paddy field weeds) | safety to the transplanted paddy rice (transplanted paddy rice) | herbicidal activity against Amaranthus retroflexus (Amaranthus retroflexus) [%] | herbicidal activity against Echinochloa crusgalli (Echinochloa crusgalli) [%] | herbicidal activity against Polygonum (Polygonum) [%] | herbicidal activity against Setaria viridis (Setaria viridis) [%] | melting point [°C]
1 | O=C(c1ccc(Cl)c(OCCn2cnnn2)c1Cl)C1C(=O)C2CCC(C2)C1=O (centres unmarked) [compound 217] | sufficient herbicidal effect | safety to the transplanted paddy rice | – | – | – | – | –
2 | CS(=O)(=O)c1ccc(C(=O)C2=C(Cl)CCCC2=O)c(Cl)c1Cn1ncnn1 [compound 2347] | – | – | 90 | 90 | 90 | 90 | –
3 | O=C1CCCC(Cl)=C1C(=O)c1ccc(Cl)c(OCCn2ncnn2)c1Cl [compound 2063] | – | – | 90 | 90 | 90 | 90 | –
4 | O=C1CCCC(Cl)=C1C(=O)c1ccc(Cl)c(OCCn2cnnn2)c1Cl | – | – | – | – | – | – | 122 to 124
5 | CSc1nnnn1Cc1c(S(C)(=O)=O)ccc(C(=O)C2C(=O)CCCC2=O)c1Cl [compound 650] | – | – | 90 | 90 | 90 | 90 | –
6 | O=C(c1ccc(Br)c(OCCn2ncnn2)c1Br)C1C(=O)C2CCC(C2)C1=O (centres unmarked) [compound 3043] | – | – | 90 | 90 | 90 | 90 | –
7 | O=C1CCCC(Cl)=C1C(=O)c1ccc(Cl)c(OCCn2cnnn2)c1Cl [compound 258] | – | – | 90 | 90 | 90 | 90 | –
8 | Cc1nnnn1CCOc1c(Cl)ccc(C(=O)C2C(=O)CCCC2=O)c1Cl [compound 275] | – | – | 90 | 90 | 90 | 90 | –
9 | O=C1CCCC(=O)C1C(=O)c1ccc(Br)c(OCCn2ncnn2)c1Br [compound 3038] | – | – | 90 | 90 | 90 | 90 | –
10 | CCn1ncc(C(=O)c2ccc(Br)c(OCCn3cnnn3)c2C)c1O [compound 1593] | – | – | 90 | 90 | 90 | 90 | –
11 | CC1(C)CC(=O)C(C(=O)c2ccc(Cl)c(OCCn3cnnn3)c2Cl)C(=O)C1 [compound 213] | – | – | 90 | 90 | 90 | 90 | –
12 | O=C1CCCC(=O)C1C(=O)c1ccc(Cl)c(OCCn2cnnn2)c1Cl [compound 212] | – | – | 90 | 90 | 90 | 90 | –
13 | CCn1ncc(C(=O)c2ccc(Cl)c(OCCn3ncnn3)c2Cl)c1O [compound 2077] | – | – | 90 | 90 | 90 | 90 | –
14 | Cc1nnn(CCOc2c(Cl)ccc(C(=O)C3C(=O)CCCC3=O)c2Cl)n1 [compound 2080] | – | – | 90 | 90 | 90 | 90 | –
15 | CC1CC(=O)C(C(=O)c2ccc(Cl)c(OCCn3cnnn3)c2Cl)C(=O)C1 (centres unmarked) [compound 215] | – | – | 90 | 90 | 90 | 90 | –
16 | O=C1CCCC(=O)C1C(=O)c1ccc(Cl)c(OCCn2ncnn2)c1Cl [compound 2017] | – | – | 90 | 90 | 90 | 90 | –
17 | CS(=O)(=O)c1ccc(C(=O)C2C(=O)CCCC2=O)c(Cl)c1OCCn1ncnn1 [compound 2521] | – | – | 90 | 90 | 90 | 90 | –

Row | Structure (SMILES) | herbicidal effect against paddy field weeds (paddy field weeds) | safety to the transplanted paddy rice (transplanted paddy rice) | herbicidal activity against Amaranthus retroflexus (Amaranthus retroflexus) [%] | herbicidal activity against Echinochloa crusgalli (Echinochloa crusgalli) [%] | herbicidal activity against Polygonum (Polygonum) [%] | herbicidal activity against Setaria viridis (Setaria viridis) [%] | melting point [°C]
18 | Cc1nnn(CCOc2c(Cl)ccc(C(=O)C3C(=O)CC(C)(C)CC3=O)c2Cl)n1 [compound 2081] | – | – | 90 | 90 | 90 | 90 | –
19 | O=C1CCCC(=O)C1C(=O)c1ccc(Br)c(OCCn2cnnn2)c1Br [compound 1234] | – | – | 90 | 90 | 90 | 90 | –
20 | Cc1nnnn1Cc1c(S(C)(=O)=O)ccc(C(=O)C2C(=O)CCCC2=O)c1Cl [compound 558] | sufficient herbicidal effect | safety to the transplanted paddy rice | – | – | – | – | –
21 | CS(=O)(=O)c1ccc(C(=O)C2C(=O)CCCC2=O)c(Cl)c1Cn1cnnn1 [compound 495] | – | – | 90 | 90 | 90 | 90 | –
22 | CCn1ncc(C(=O)c2ccc([N+](=O)[O-])c(OCCn3cnnn3)c2C)c1O [compound 1693] | – | – | 90 | 90 | 90 | 90 | –
23 | Cc1cccc(C)c1SC1=C(C(=O)c2ccc(S(C)(=O)=O)c(Cn3ncnn3)c2Cl)C(=O)CCC1 [compound 2335] | sufficient herbicidal effect | safety to the transplanted paddy rice | – | – | – | – | –
24 | Cc1nnn(Cc2c(S(C)(=O)=O)ccc(C(=O)C3C(=O)CCCC3=O)c2Cl)n1 [compound 2364] | sufficient herbicidal effect | safety to the transplanted paddy rice | 90 | 90 | 90 | 90 | –
25 | O=C1CCCC(Sc2ccccc2)=C1C(=O)c1ccc(Cl)c(OCCn2cnnn2)c1Cl | – | – | – | – | – | – | 64 to 70
26 | O=C(c1ccc(Br)c(OCCn2cnnn2)c1Br)C1C(=O)C2CCC(C2)C1=O (centres unmarked) [compound 1239] | – | – | 90 | 90 | 90 | 90 | –
27 | CS(=O)(=O)c1ccc(C(=O)C2C(=O)CCCC2=O)c(Cl)c1Cn1ncnn1 [compound 2301] | – | – | 90 | 90 | 90 | 90 | –
28 | CS(=O)(=O)c1ccc(C(=O)C2C(=O)CCCC2=O)c(Cl)c1OCCn1cnnn1 [compound 715] | – | – | 90 | 90 | 90 | 90 | –
29 | CCn1ncc(C(=O)c2ccc(Cl)c(OCCn3cnnn3)c2Cl)c1O [compound 272] | – | – | 90 | 90 | 90 | 90 | –
30 | Cc1ccc(SC2=C(C(=O)c3ccc(S(C)(=O)=O)c(Cn4ncnn4)c3Cl)C(=O)CCC2)cc1 [compound 2329] | sufficient herbicidal effect | safety to the transplanted paddy rice | – | – | – | – | –
31 | O=C1CCCC(Sc2ccccc2)=C1C(=O)c1ccc(Cl)c(OCCn2cnnn2)c1Cl [compound 219] | sufficient herbicidal effect | safety to the transplanted paddy rice | – | – | – | – | –
32 | O=C(c1ccc(Cl)c(OCCn2ncnn2)c1Cl)C1C(=O)C2CCC(C2)C1=O (centres unmarked) [compound 2022] | – | – | 90 | 90 | 90 | 90 | –
33 | O=C1CCCC(Sc2ccccc2)=C1C(=O)c1ccc(Cl)c(OCCn2ncnn2)c1Cl [compound 2024] | sufficient herbicidal effect | safety to the transplanted paddy rice | – | – | – | – | –

— US20050090398A1, “Novel tetrazole derivative useful as herbicides” (priority 2002, published 2005)
